pIC50: −log10 of the molar value. Where “and” joins values, the source holds several entries; their conditions need not be identical. Identical values can stand only once. A value given as a limit tells only on which side of the number the result lay.

The subject of the assay is 743489-274-T-PDC complex spheroid viability. The experiment in a line: Anticancer human tumor 743489-274-T-PDC patient-derived renal cell carcinoma cell line growth inhibition. The following applies: for viability, T/C: stronger effect = lower value; for pIC50: curve of compound. An excerpt:
Multicellular complex tumor spheroid response to LSD1 Inhibitor Iadademstat in combination with a variety of drugs and investigational agents in selected tumor cell lines
The current study was undertaken to assess response to LSD1 inhibitors in combination with standard-of-care drugs and investigational agents in solid tumor complex spheroid models as well as in the K-562 leukemia. Complex spheroids include a stromal component modeled by human endothelial cells (HUVEC) and fibroblasts modeled by human mesenchymal stem cells (MSCs). The concentration ranges selected for each drug and investigational agent were based upon clinically achievable concentrations if the clinical Cmax of the agent was known.
Compounds. The drugs and investigational agents used in this study are listed on Table 1. All of the agents used, including staurosporine (NSC755774) and gemcitabine (NSC613327), were obtained from the Developmental Therapeutics Program, NCI. FDA-approved anticancer drugs are available from the NCI at http://dtp.nci.nih.gov/branches/dscb/oncology_drugset_explanation.html. Drugs and investigational agents were >95% pure by proton nuclear magnetic resonance (NMR) and liquid chromatography/mass spectrometry (LC/MS). Stock solutions were prepared at 400x in DMSO, stored at -70 degrees C, and diluted in fresh medium prior to their use. The final concentration of DMSO in cell culture wells never exceeded 0.25% (v/v). The FDA-approved anticancer drug set is available from the Developmental Therapeutics Program at https://dtp.cancer.gov/organization/dscb/obtaining/available_plates.htm. All drugs and investigational agents were tested over a range starting from a high concentration at or near the clinical Cmax and decreasing in half-log increments. If the clinical Cmax for an agent had not been determined, the highest concentration tested was 10 microM.
Cell Lines. The patient-derived cancer cell (PDC) lines: 292921-168-R-J2-PDC, K24384-001-R-PDC, and 521955-158-R2-J5-PDC pancreatic carcinomas, 556581-035-R-J1 ovarian carcinoma, 324938-238-R-J1-PDC, 855422-203-R-J1-PDC and 883617-216-R-J1-PDC urothelial bladder carcinomas, 743489-274-T-PDC renal cell carcinoma, 138582-R-J1 Merkel cell tumor, K60290-347-R-J1 and K57222-313-R-J1-PDC glioblastomas, 653999-131-R-J2-PDC, LG0703-F948-PDC, and 349418-098-R-PDC non-small cell lung carcinomas, 885512-296-R-J2-PDC, 171881-019-R-J1-PDC breast carcinomas and 186277-243-T-J2-PDC and 233499-124-R-J2-PDC colon carcinomas were obtained from the NCI Patient-Derived Models Repository (PDMR, https://pdmr.cancer.gov). The established cell lines NCI/ADR-RES (RRID:CVCL_14520 and OVCAR-5 (RRID:CVCL_1628) ovarian carcinomas, 786-O (RRID:CVCL_1051) and A498 (RRID:CVCL_A498) renal cell carcinoma, NCI-H211 (ATCC, cat. CRL-5824; RRID:CVCL_1529), NCI-H196 (ATCC, cat. CRL-5823, RRID:CVCL_1509), SW 1271 (ATCC, cat. CRL-2177, RRID:CVCL_1716) and NCI-H1876 (ATCC, cat. CRL-5902, RRID:CVCL_1503) small cell lung carcinomas, MDA-MB-231 (RRID:CVCL_0062) and MDA-MB-468 (RRID:CVCL_0419)breast carcinomas (10-12). Pooled donor human umbilical vein endothelial cells (HUVEC, Lonza, cat. CC-2519) and human mesenchymal stem cells (hMSC, Lonza, cat. PT-2501) were purchased from Lonza (Walkersville, MD).
Cell Culture. All cells were maintained in an incubator at 37 degrees C and 5% CO2 with 95% humidity. The PDC lines were cultured according to standard operating procedures established by the NCI PDMR (https://pdmr.cancer.gov). Briefly all PDCs were thawed and cultured in Matrigel-coated flasks prepared with a working solution of 1X Ham's F-12 nutrient mix, without supplementation (Invitrogen, Waltham, MA, cat. 11765054), 100 U/mL penicillin-streptomycin (Invitrogen, cat. 15140122), and 2.5% Matrigel (Corning Inc., Corning, NY, cat. 354248) for the first three passages. […]
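Further: spheroids exposed to compounds for 7 days before readout.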
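Wherever viability, T/C is given: 100% = DMSO vehicle control wells.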

In the case of `Cn1ncnc1C1c2n[nH]c(=O)c3cc(F)cc(c23)NC1c1ccc(F)cc1` (stereo not drawn), the pIC50 was under 7.00. Besides, the viability, T/C (compound 0.000316 µM) was 88.5% and 99.7%. For the same compound, the viability, T/C (compound 0.001 µM) is 100% and 110%. The viability, T/C (compound 0.00316 µM) is 90.2% and 98.6%. Further, under “compound 0.01 µM”, the viability, T/C is 95.9% and 90.8%. Also, the viability, T/C (compound 0.0316 µM) is 93.7% and 92.8%. The viability, T/C (compound 0.1 µM) is 91.4% and 84.3%.
On to `NS(=O)(=O)OCC1CC(n2ccc3c(NC4CCc5ccccc54)ncnc32)CC1O` (stereo not drawn), for which the pIC50 is under 5.52. Also, the viability, T/C (compound 0.00949 µM) is 90.9% and 95.7%. In addition, the viability, T/C (compound 0.03 µM) was 95.9% and 111%. Moreover, for the setting “compound 0.0949 µM”, the viability, T/C was 111% and 103%. Further, the viability, T/C (compound 0.3 µM) is 118% and 135%. The viability, T/C (compound 0.949 µM) was 116% and 125%. The viability, T/C (compound 3 µM) was 121% and 101%.
For `Nc1ccccc1NC(=O)c1ccc(CNC(=O)OCc2cccnc2)cc1`, the negative logarithm of the IC50 (pIC50) was 5.94 and 6.12. For the same compound, the viability, T/C (compound 0.00949 µM) was 85.4% and 102%. The viability, T/C (compound 0.03 µM) is 89.2% and 78%. The viability, T/C (compound 0.0949 µM) was 95.2% and 79.4%. Where the note is “compound 0.3 µM”, the viability, T/C is 78.8% and 67.1%. For the same compound, the viability, T/C (compound 0.949 µM) is 54.2% and 47.6%. Where the note is “compound 3 µM”, the viability, T/C was 32.6% and 26.4%.
As for `Nc1ccn(C2OC(CO)C(O)C2(F)F)c(=O)n1` (stereo not drawn), the negative-log IC50 (pIC50) is under 6.52. For the same compound, the viability, T/C (compound 0.000949 µM) is 82.7% and 61.8%. The viability, T/C (compound 0.003 µM) is 85.6% and 60.9%. Also, the viability, T/C (compound 0.00949 µM) was 73% and 96.8%. Also, the viability, T/C (compound 0.03 µM) was 73.7% and 58%. Further, the viability, T/C (compound 0.0949 µM) was 71.6% and 64.1%. Besides, the viability, T/C (compound 0.3 µM) is 65.2% and 63.2%.
With `Nc1ncn(C2CC(O)C(CO)O2)c(=O)n1` (stereo not drawn), the pIC50 was under 6.00. Further, for the setting “compound 0.00316 µM”, the viability, T/C was 105% and 90.1%. The viability, T/C (compound 0.01 µM) was 98% and 100%. The viability, T/C (compound 0.0316 µM) was 81% and 101%. For the same compound, the viability, T/C (compound 0.1 µM) is 96.1% and 84.5%. The viability, T/C (compound 0.316 µM) is 96% and 94.3%. Further, the viability, T/C (compound 1 µM) was 84.3% and 97.7%.
Consider `Nc1ncn(C2CC(O)C(CO)S2)c(=O)n1` (stereo not drawn), for which the pIC50 was under 6.52. The viability, T/C (compound 0.000949 µM) is 106% and 96.8%. For the same compound, for the setting “compound 0.003 µM”, the viability, T/C is 108% and 96.2%. Besides, the viability, T/C (compound 0.00949 µM) is 90.8% and 92%. Besides, the viability, T/C (compound 0.03 µM) was 80.2% and 82.5%. Also, the viability, T/C (compound 0.0949 µM) was 89.9% and 81.5%. In addition, the viability, T/C (compound 0.3 µM) is 88.7% and 75.2%.
With `O=C(C=Cc1cccc(S(=O)(=O)Nc2ccccc2)c1)NO`, the pIC50 was 5.79 and 6.00. The viability, T/C (compound 0.00949 µM) was 89.9% and 92.2%. The viability, T/C (compound 0.03 µM) was 83.1% and 89.3%. Besides, the viability, T/C (compound 0.0949 µM) is 76.4% and 75%. For the same compound, the viability, T/C (compound 0.3 µM) is 66.4% and 65%. The viability, T/C (compound 0.949 µM) is 55.4% and 51.6%. Also, where the note is “compound 3 µM”, the viability, T/C is 43.6% and 35.7%.
`O=C(C=Cn1cnc(-c2cc(C(F)(F)F)cc(C(F)(F)F)c2)n1)NNc1cnccn1`: the negative-log IC50 (pIC50) is under 6.00. The viability, T/C (compound 0.00316 µM) is 106% and 109%. In addition, the viability, T/C (compound 0.01 µM) is 108% and 91%. Moreover, under “compound 0.0316 µM”, the viability, T/C was 121% and 117%. Also, the viability, T/C (compound 0.1 µM) was 115% and 97.5%. The viability, T/C (compound 0.316 µM) is 94.2% and 86.3%. The viability, T/C (compound 1 µM) was 81.2% and 73.2%.
With `O=C(c1cc(Cc2n[nH]c(=O)c3ccccc23)ccc1F)N1CCN(C(=O)C2CC2)CC1`, the pIC50 is under 5.00. Besides, the viability, T/C (compound 0.0316 µM) was 95.3% and 101%. For the same compound, the viability, T/C (compound 0.1 µM) was 88.2% and 113%. Under “compound 0.316 µM”, the viability, T/C was 102% and 108%. In addition, the viability, T/C (compound 1 µM) was 108%. Also, the viability, T/C (compound 3.16 µM) was 94.5% and 93.2%. Further, the viability, T/C (compound 10 µM) was 83% and 82.5%.
